Data as given in patent publication US12594349B2, “Compositions and methods for the targeting of PCSK9” (Scribe Therapeutics Inc., priority 2022, dated 2026).

Assays:
[1] = tested on: human PCSK9 locus; experiment: Secreted PCSK9 by ELISA in Huh7 cells transfected with mRNA and gRNA; type: cell-based; conditions: for Secreted PCSK9 / Percent reduction in PCSK9 secretion / Average percent reduction in PCSK9 secretion: Huh7 cells; for Secreted PCSK9: 6 days post-transfection, normalized to total cell count; for Percent reduction in PCSK9 secretion / Average percent reduction in PCSK9 secretion: LTRP5-ADD-ZIM3 mRNA; for Percent reduction in PCSK9 secretion: day 6, relative to non-targeting gRNA control; for Average percent reduction in PCSK9 secretion: day 6, averaged from the two doses
Description: To assess PCSK9 secretion, seeded Huh7 cells were transfected with mRNA encoding a catalytically-active CasX 676, dXR1, or LTRP5-ADD-ZIM3 and a gRNA with scaffold 316 and spacer targeting either the B2M or PCSK9 locus. Media supernatant was harvested at 6, 18, 36, and 87 days post-transfection to assess level of PCSK9 secretion by ELISA. Levels of PCSK9 secretion were normalized to total cell count. As an additional control, PCSK9 secretion was also measured in the media supernatant harvested from wells containing untreated, naïve cells.
The following three human hepatocyte cancer cell lines were used in this experiment: HepG2 cells, Hep3B cells, and Huh7 cells. ˜15,000 cells of each cell line were seeded per well; the next day, seeded cells were transfected with mRNA encoding a catalytically-active CasX 676, dXR1, or LTRP5-ADD-ZIM3 and a gRNA with scaffold 316 and spacer targeting either the B2M or PCSK9 locus (see Table 23 for specific spacers and sequences). Media supernatant was harvested at 4 days post-transfection to assess level of PCSK9 secretion by ELISA, and levels of PCSK9 secretion were normalized to total cell count and illustrated in FIGS. 11A-11C. Culturing of treated Huh7 cells continued, and media supernatant was harvested at 14 and 27 days post-transfection for measuring PCSK9 secretion by ELISA. As an additional experimental control, PCSK9 secretion was also measured in the media supernatant harvested from wells containing untreated, naïve cells.
To assess PCSK9 secretion, seeded Huh7 cells were co-transfected with mRNA encoding for LTRP5-ADD-ZIM3 and a gRNA with scaffold 316 and spacer targeting the PCSK9 locus using Lipofectamine™ 3000. Two doses of total RNA input at a 2:1 mass ratio of mRNA to gRNA were used for screening: 50 ng mRNA:25 ng gRNA and 25 ng mRNA:12.5 ng gRNA. Media supernatant was harvested at 6 days post-transfection to assess level of PCSK9 secretion by ELISA (Table 74). Levels of PCSK9 secretion were normalized to total cell count. As an additional control, PCSK9 secretion was also measured in the media supernatant harvested from cells transfected with mRNA encoding for mScarlet.

[2] = tested on: HBEGF; type: cell-based, human; conditions: HEK293T, dCasX491 fusion, scaffold 174 spacer 34.28, 2 ng/mL diphtheria toxin for 48 hours
[3] = LTRP5-ADD-ZIM3 mRNA + gRNA scaffold 316, 25 ng mRNA:12.5 ng gRNA
[4] = LTRP5-ADD-ZIM3 mRNA + gRNA scaffold 316, 50 ng mRNA:25 ng gRNA

Substance | Secreted PCSK9 [1, 3] [ng/mL] | Secreted PCSK9 [1, 4] [ng/mL] | Percent reduction in PCSK9 secretion ([1]; 25 ng mRNA:12.5 ng gRNA) [%] | Percent reduction in PCSK9 secretion ([1]; 50 ng mRNA:25 ng gRNA) [%] | Average percent reduction in PCSK9 secretion [1] [%] | secreted PCSK9 repression compared with spacer 6.1 paired with CasX 676 ([1]; Huh7, LTRP5-ADD-ZIM3 mRNA + gRNA scaffold 316, through day 36) | log 2(fold change) of abundance before and after selection [2]
TG-06-143 (guide GAAUCAAUCCUACUGUGGAC; listed as RNA, chemistry not given here) | 22.33 | 38.69 | 68.66 | 52.97 | 60.81 | – | –
TG-06-144 (guide GUGGGCAGCGAGGAGUCCAC; listed as RNA, chemistry not given here) | 29 | 23.42 | 59.29 | 71.53 | 65.41 | – | –
TG-06-145 (guide UGGGUCCACCUUGUCUCCUG; listed as RNA, chemistry not given here) | 18.54 | 15.8 | 73.98 | 80.8 | 77.39 | – | –
TG-06-146 (guide GAAGUCUCACUGGUCAGCAG; listed as RNA, chemistry not given here) | 20.34 | 40.84 | 71.45 | 50.36 | 60.9 | – | –
TG-06-147 (guide GUGUUUCCUGGGUCCACCUU; listed as RNA, chemistry not given here) | 37.43 | 53.6 | 47.46 | 34.85 | 41.15 | – | –
TG-06-148 (guide GCCGGGCCCACCUUUUCAGU; listed as RNA, chemistry not given here) | 44.77 | 71.46 | 37.16 | 13.15 | 25.15 | – | –
TG-06-149 (guide AGCCCAGUUAGGAUUUGGGA; listed as RNA, chemistry not given here) | 38.33 | 21.18 | 46.21 | 74.26 | 60.23 | – | –
TG-06-150 (guide UCCCUCUGCGCGUAAUCUGA; listed as RNA, chemistry not given here) | 39.59 | 18.33 | 44.42 | 77.73 | 61.08 | – | –
TG-06-151 (guide CUCUGCGCGUAAUCUGACGC; listed as RNA, chemistry not given here) | 66.42 | 53.44 | 6.77 | 35.05 | 20.91 | – | –
TG-06-152 (guide GCCUCGCCCUCCCCAAACAG; listed as RNA, chemistry not given here) | 57.43 | 36.95 | 19.39 | 55.09 | 37.24 | – | –
TG-06-153 (guide GUUAAUGUUUAAUCAGAUAG; listed as RNA, chemistry not given here) | 86.58 | 73.23 | 21.52 | 10.99 | 5.27 | – | –
TG-06-155 (guide GCAGCGACGUCGAGGCGCUC; listed as RNA, chemistry not given here) | 56.36 | 29.45 | 20.89 | 64.21 | 42.55 | – | –
TG-06-158 (guide GGAGCAGGGCGCGUGAAGGG; listed as RNA, chemistry not given here) | 31.72 | 9.39 | 55.48 | 88.59 | 72.03 | – | –
TG-06-159 (guide GCGCGCCCCUUCACGCGCCC; listed as RNA, chemistry not given here) | 80.84 | 53.15 | 13.47 | 35.4 | 10.97 | – | –
TG-06-160 (guide CGCGCCCUGCUCCUGAACUU; listed as RNA, chemistry not given here) | 48.67 | 20.63 | 31.69 | 74.93 | 53.31 | – | –
TG-06-161 (guide GCUCCUGCACAGUCCUCCCC; listed as RNA, chemistry not given here) | 53.16 | 29.55 | 25.38 | 64.08 | 44.73 | – | –
TG-06-168 (guide GUGGGAAGGUUCGCGGGGUU; listed as RNA, chemistry not given here) | 50.96 | 19.1 | 28.47 | 76.78 | 52.62 | – | –
TG-06-169 (guide CGGGGUUGGGAGACCCGGAG; listed as RNA, chemistry not given here) | 62.55 | 66.39 | 12.2 | 19.3 | 15.75 | – | –
TG-06-170 (guide UCGGCCUCCGGGUCUCCCAA; listed as RNA, chemistry not given here) | 72.96 | 64.19 | 2.41 | 21.98 | 9.79 | – | –
TG-06-171 (guide CAGUACGUUCCAGGCAUUCA; listed as RNA, chemistry not given here) | 55.95 | 52.41 | 21.46 | 36.3 | 28.88 | – | –
TG-06-172 (guide GCUGAAACAGAUGGAAUACU; listed as RNA, chemistry not given here) | 59.31 | 44.44 | 16.75 | 45.99 | 31.37 | – | –
TG-06-342 (guide AAUUACAGGCAACAGGAAGG; listed as RNA, chemistry not given here) | – | – | 5.6 | – | – | – | –
TG-06-344 (guide CAGUUUCUGCCUCGCCGCGG; listed as RNA, chemistry not given here) | – | – | – | 0.01 | – | – | –
TG-06-352 (guide UCCCUCACCAAUUACCCCUC; listed as RNA, chemistry not given here) | – | – | – | – | – | effective repression | –
TG-06-1046 (guide UCUCUUACAUGGGGGGAAAC; listed as RNA, chemistry not given here) | – | – | – | 4.1 | – | – | –
ZIM3: human ZIM3 KRAB domain, SEQ ID NO: 128 [reference compound] | – | – | – | – | – | – | 1.7787
standard ZNF10: human ZNF10 KRAB domain, SEQ ID NO: 129 [reference compound] | – | – | – | – | – | – | 1.3637
